Among the data in patent US12129237B2, “Substituted diaminocarboxamide and diaminocarbonitrile pyrimidines, compositions thereof, and methods of treatment therewith” (SIGNAL PHARMACEUTICALS, LLC, priority 2011, dated 2024) are IC50 values, retold here.

Like-named read-outs stand apart in the source and are kept apart here. Some results are limits rather than exact numbers.

This experiment concerns the target T1, JNK1 (Homo sapiens, UniProt P45983).
T1 construct: purchased Carna Biosciences
Briefly: JNK1 biochemical assays (one or more of: time resolved fluorescence, Z'-LYTE Cascade, radioactive).

Where [1] appears, read: tested in one or more of the JNK1 biochemical assays, read-out: Act. Level (JNK1 biochemical assay IC50 activity level).
Setting [2] is: one or more of the JNK1 biochemical assays, read-out: Act. Level (JNK1 IC50 activity level).
Where [3] appears, read: Table 2, JNK1 IC50 activity level, read-out: Act. Level.
[4] abbreviates: Table 3, JNK1 IC50 activity level, read-out: Act. Level.

T1 sequence (P45983 whole entry): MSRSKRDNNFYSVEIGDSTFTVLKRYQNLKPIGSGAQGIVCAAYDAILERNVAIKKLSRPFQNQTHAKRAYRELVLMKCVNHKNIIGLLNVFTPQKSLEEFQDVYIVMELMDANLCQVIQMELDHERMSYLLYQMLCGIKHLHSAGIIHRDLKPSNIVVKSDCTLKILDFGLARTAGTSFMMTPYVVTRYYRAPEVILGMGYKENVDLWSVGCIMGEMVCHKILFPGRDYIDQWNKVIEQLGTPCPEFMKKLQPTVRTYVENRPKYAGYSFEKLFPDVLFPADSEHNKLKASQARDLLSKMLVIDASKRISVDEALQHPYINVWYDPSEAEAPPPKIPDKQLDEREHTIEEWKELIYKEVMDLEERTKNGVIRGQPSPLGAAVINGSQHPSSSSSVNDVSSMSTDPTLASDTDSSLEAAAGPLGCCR

In the case of `C[C@@H]1CC[C@@H](Nc2nc(N[C@H]3CC[C@H](OCC(F)(F)F)CC3)ncc2C(N)=O)C[C@H]1O` [Example A-178, 4-((1R,3R,4R)-3-hydroxy-4-methylcyclohexylamino)-2-((1r,4R)-4-(2,2,2-trifluoroethoxy)cyclohexylamino)pyrimidine-5-carboxamide], the IC50 under setting [1] is below 200 nM.
As to `CC(C)(C)Nc1nc(N[C@H]2CC[C@H](OCC(F)(F)F)CC2)ncc1C(N)=O` [Example 212, 4-(tert-butylamino)-2-((1r,4r)-4-(2,2,2-trifluoroethoxy)cyclohexylamino)pyrimidine-5-carboxamide], under setting [2], the IC50 is below 200 nM.
Regarding `CO[C@H]1CC[C@H](Nc2ncc(C(N)=O)c(NC(C)(C)CO)n2)CC1` [Example 310, 4-(1-hydroxy-2-methylpropan-2-ylamino)-2-((1r,4r)-4-methoxycyclohexylamino)pyrimidine-5-carboxamide], the IC50 under setting [2] was below 200 nM.
In the case of `CCC(=O)N1CCC(Nc2ncc(C(N)=O)c(N[C@H]3CC[C@@H](O)CC3)n2)CC1` [Example A-89, 4-((1s,4s)-4-hydroxycyclohexylamino)-2-(1-propionylpiperidin-4-ylamino)pyrimidine-5-carboxamide], under setting [1], the IC50 was below 200 nM.
Regarding `CCO[C@H]1CC[C@H](Nc2ncc(C(N)=O)c(NC[C@@H](C)O)n2)CC1` [Example A-67, 2-((1r,4R)-4-ethoxycyclohexylamino)-4-((R)-2-hydroxypropylamino)pyrimidine-5-carboxamide], the IC50 under setting [1] is below 200 nM.
For the compound `NC(=O)c1cnc(N[C@H]2CC[C@H](OCC(F)(F)F)CC2)nc1NC1CCC1` [Example A-174, 4-(cyclobutylamino)-2-((1r,4r)-4-(2,2,2-trifluoroethoxy)cyclohexylamino)pyrimidine-5-carboxamide], the IC50 under setting [1] was below 200 nM.
Consider `NC(=O)c1cnc(NC2CCCCC2)nc1N[C@H]1CC[C@@H](C(N)=O)CC1` [Example A-146, 4-((1s,4s)-4-carbamoylcyclohexylamino)-2-(cyclohexylamino)pyrimidine-5-carboxamide], for which, under setting [1], the IC50 is below 200 nM.
Regarding `NC(=O)c1cnc(N[C@H]2CCCOC2)nc1NC1CCC1` [Example 448, (S)-4-(cyclobutylamino)-2-(tetrahydro-2H-pyran-3-ylamino)pyrimidine-5-carboxamide], the IC50 under setting [2] is below 200 nM.
Still for that read-out and setting: the value for `CCC(CC)Nc1ncc(C(N)=O)c(N[C@@H]2CCC[C@H](O)C2)n1` [Example 498, 4-((1R,3S)-3-hydroxycyclohexylamino)-2-(pentan-3-ylamino)pyrimidine-5-carboxamide] was below 200 nM.
As to `CC(C)Nc1nc(N[C@@H]2CCc3ncccc3C2)ncc1C(N)=O` [Example B-81, (R)-4-(isopropylamino)-2-(5,6,7,8-tetrahydroquinolin-6-ylamino)pyrimidine-5-carboxamide], the IC50 under setting [3] fell in the range of 200 to 800 nM.
For `CO[C@H]1CC[C@H](Nc2ncc(C(N)=O)c(NC3CCC3C)n2)CC1` (some centres unmarked) [Example 255, 2-((1r,4r)-4-methoxycyclohexylamino)-4-(2-methylcyclobutylamino)pyrimidine-5-carboxamide], under setting [2], the IC50 was below 200 nM.
With `CC1(C)CCC(Nc2ncc(C(N)=O)c(N[C@@H]3CCC[C@H](O)C3)n2)c2ccccc21` (stereo partly drawn) [Example B-99, 2-(4,4-dimethyl-1,2,3,4-tetrahydronaphthalen-1-ylamino)-4-((1R,3S)-3-hydroxycyclohexylamino)pyrimidine-5-carboxamide], under setting [3], the IC50 was 200 to 800 nM.
Consider `Cc1ccnc(Nc2ncc(C(N)=O)c(Nc3ccccc3)n2)n1` [Example B-21, 2-(4-methylpyrimidin-2-ylamino)-4-(phenylamino)pyrimidine-5-carboxamide], for which, under setting [3], the IC50 is 1000 to 10000 nM.
As to `C[C@]1(O)CCC[C@@H](Nc2nc(N[C@H]3CC[C@H](OC(F)F)CC3)ncc2C#N)C1` [Example C-44, 2-((1r,4R)-4-(difluoromethoxy)cyclohexylamino)-4-((1R,3S)-3-hydroxy-3-methylcyclohexylamino) pyrimidine-5-carbonitrile], under setting [4], the IC50 is below 200 nM.
Turning to `NC(=O)c1cnc(N[C@H]2CC[C@H](O)CC2)nc1NC1COC1` [Example 235, 2-((1r,4r)-4-hydroxycyclohexylamino)-4-(oxetan-3-ylamino)pyrimidine-5-carboxamide], the IC50 under setting [2] was below 200 nM.
Take `CCO[C@H]1CC[C@H](Nc2ncc(C(N)=O)c(NC3(C)CCCC3)n2)CC1` [Example 488, 2-((1r,4r)-4-ethoxycyclohexylamino)-4-(1-methylcyclopentylamino)pyrimidine-5-carboxamide]: under setting [2], the IC50 is below 200 nM.
On the same count and under the same terms, the value for `CCO[C@H]1CC[C@H](Nc2ncc(C(N)=O)c(N[C@H](C)C3CCC3)n2)CC1` [Example 294, 4-((R)-1-cyclobutylethylamino)-2-((1r,4R)-4-ethoxycyclohexylamino)pyrimidine-5-carboxamide] was 1000 to 10000 nM.
As to `NC(=O)c1cnc(Nc2ccccc2Oc2ccccc2)nc1Nc1ccccc1` [Example B-22, 2-(2-phenoxyphenylamino)-4-(phenylamino)pyrimidine-5-carboxamide], the IC50 under setting [3] is below 200 nM.
As to `NC(=O)c1cnc(N[C@H]2CC[C@H](OC(F)F)CC2)nc1N[C@@H]1CCCC[C@H](O)C1` [Example A-165, 2-((1r,4R)-4-(difluoromethoxy)cyclohexylamino)-4-((1R,3S)-3-hydroxycycloheptylamino)pyrimidine-5-carboxamide], the IC50 under setting [1] was below 200 nM.
In the case of `CCOc1ccc(Nc2ncc(C(N)=O)c(N[C@H]3CCC[C@@H]3O)n2)cc1` [Example B-1, 2-(4-ethoxyphenylamino)-4-((1S,2S)-2-hydroxycyclopentylamino)pyrimidine-5-carboxamide], the IC50 under setting [3] is below 200 nM.
For the compound `NC(=O)c1cnc(NC2CCCC(O)CC2)nc1NC1CCC1` (centres unmarked) [Example 248, 4-(cyclobutylamino)-2-(4-hydroxycycloheptylamino)pyrimidine-5-carboxamide], the IC50 under setting [2] was below 200 nM.
The same measure, in the same setting: the value for `NC(=O)c1cnc(N[C@H]2CC[C@H](OC3CC3)CC2)nc1NC12CCC(C1)C2` [Example 487, 4-(bicyclo[2.1.1]hexan-1-ylamino)-2-((1r,4r)-4-cyclopropoxycyclohexylamino)pyrimidine-5-carboxamide] was below 200 nM.
`CO[C@H]1CC[C@H](Nc2ncc(C(N)=O)c(N[C@H]3CCC[C@H]3CO)n2)CC1` [Example A-37, 4-((1S,2R)-2-(hydroxymethyl)cyclopentylamino)-2-((1r,4S)-4-methoxycyclohexylamino)pyrimidine-5-carboxamide]: the IC50 under setting [1] fell in the range of 200 to 800 nM.
Take `CN(C)C(=O)[C@H]1CC[C@H](Nc2ncc(C#N)c(N[C@@H]3CCCC[C@H](O)C3)n2)CC1` [Example C-45, (1R,4r)-4-(5-cyano-4-((1R,3S)-3-hydroxycycloheptylamino)pyrimidin-2-ylamino)-N,N-dimethylcyclohexanecarboxamide]: under setting [4], the IC50 was below 200 nM.
In the case of `NC(=O)c1cnc(NC2CCCC2)nc1N[C@@H]1CCC[C@H](O)C1` [Example 439, 2-(cyclopentylamino)-4-((1R,3S)-3-hydroxycyclohexylamino)pyrimidine-5-carboxamide], under setting [2], the IC50 is below 200 nM.
With `CN(C)C(=O)[C@H]1CC[C@H](Nc2ncc(C#N)c(N[C@@H]3CCCOC3)n2)CC1` [Example C-54, (1R,4r)-4-(5-cyano-4-((R)-tetrahydro-2H-pyran-3-ylamino)pyrimidin-2-ylamino)-N,N-dimethylcyclohexanecarboxamide], under setting [4], the IC50 lay in the range of 200 to 800 nM.
